pEC50: −log10 of the molar value. Entries after “also recorded” stand apart in the source; their conditions may differ. Positions of bridges follow the written chain, without caps; N, C: chain ends. Residues, ends and D or L forms follow the SMILES beside them.
Legend:
hGalR1 = molecular target: T1, hGalR1 (Homo sapiens, UniProt P47211); assay: SRE-Luc receptor activation assay, hGalR1; format: cell-based; details: for hGalR1 EC50: HEK293 cells transfected with hGalR1, Gqi, SRE-Luc, 6 h treatment, full-dose; for hGalR1 Emax: Relative to hGAL Emax
T1 sequence (P47211 1-349): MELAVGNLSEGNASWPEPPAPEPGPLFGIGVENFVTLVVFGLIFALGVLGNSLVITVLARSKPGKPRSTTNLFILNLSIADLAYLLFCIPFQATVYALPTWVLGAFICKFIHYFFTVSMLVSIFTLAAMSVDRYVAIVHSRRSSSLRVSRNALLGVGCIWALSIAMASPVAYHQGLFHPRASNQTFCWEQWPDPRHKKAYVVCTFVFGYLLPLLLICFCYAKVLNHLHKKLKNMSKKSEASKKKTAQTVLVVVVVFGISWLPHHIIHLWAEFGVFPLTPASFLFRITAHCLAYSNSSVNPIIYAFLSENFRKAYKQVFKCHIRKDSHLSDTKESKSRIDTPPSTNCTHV

hGalR2 = molecular target: T2, hGalR2 (Homo sapiens, UniProt O43603); assay: SRE-Luc receptor activation assay, hGalR2; format: cell-based; details: for pEC50: HEK293 cells transfected with hGalR2, Gqi, SRE-Luc, 6 h treatment, full-dose, read-out: hGalR2 EC50; for hGalR2 Emax: Relative to hSPX Emax
T2 construct: host or cells: HEK293
T2 sequence (O43603 1-387): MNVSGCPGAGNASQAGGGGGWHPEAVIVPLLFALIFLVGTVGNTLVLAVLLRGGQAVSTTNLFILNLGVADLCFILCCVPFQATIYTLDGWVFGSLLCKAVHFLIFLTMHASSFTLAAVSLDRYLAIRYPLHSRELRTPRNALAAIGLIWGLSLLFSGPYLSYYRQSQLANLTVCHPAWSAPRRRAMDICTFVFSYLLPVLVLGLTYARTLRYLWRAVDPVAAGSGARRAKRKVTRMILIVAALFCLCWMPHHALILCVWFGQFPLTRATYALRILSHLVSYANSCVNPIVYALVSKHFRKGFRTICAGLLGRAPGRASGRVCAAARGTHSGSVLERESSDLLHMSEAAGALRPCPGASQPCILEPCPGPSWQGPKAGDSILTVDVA

hGalR3 = molecular target: T3, hGalR3 (Homo sapiens, UniProt O60755); assay: SRE-Luc receptor activation assay, hGalR3; format: cell-based; details: for pEC50: HEK293 cells transfected with hGalR3, Gqi, SRE-Luc, 6 h treatment, full-dose, read-out: hGalR3 EC50; for hGalR3 Emax: Relative to hSPX Emax
T3 construct: host or cells: HEK293
T3 sequence (O60755 1-368): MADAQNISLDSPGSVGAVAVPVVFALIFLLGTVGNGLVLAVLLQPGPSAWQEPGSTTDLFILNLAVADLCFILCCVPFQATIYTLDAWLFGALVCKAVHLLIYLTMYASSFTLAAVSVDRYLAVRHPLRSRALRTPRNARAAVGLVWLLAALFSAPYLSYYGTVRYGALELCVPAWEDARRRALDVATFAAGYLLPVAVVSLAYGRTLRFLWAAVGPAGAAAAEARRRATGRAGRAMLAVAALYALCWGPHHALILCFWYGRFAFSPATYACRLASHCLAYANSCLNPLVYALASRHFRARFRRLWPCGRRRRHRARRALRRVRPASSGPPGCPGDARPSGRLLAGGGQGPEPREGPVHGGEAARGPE

[1] = In vitro serum stability assay (RP-HPLC); format: in vitro ADME, rat; details: rat
Procedure: The serum stability of CSAs was tested using an in vitro assay followed by reverse-phase high-performance liquid chromatography (RP-HPLC) analysis (FIGS. 33-38).
750 μL RPMI medium 1640 (Thermo Fisher Scientific) was mixed with […] rat serum, and incubated at 37° C. for 15 min before adding peptide. The peptide dissolved in water was added into the reaction buffer to make a final concentration of 100 μg/mL. At each time point (5, 15, 30, 60, 120, 240, and 480 min), 100 μL reaction solution were taken, and mixed with 200 μL 6% trichloroacetic acid (TCA, Sigma-Aldrich). The resulting cloudy solution was cooled at 4° C. for 15 min, and centrifuged for 10 mins at 13,000 rpm. The supernatant was then analyzed by RP-HPLC. The extent of intact peptide was calculated based on the peak area and was normalized using a control sample.

[2] = test system: C57BL/6J mice with high-fat-diet (HFD) induced obesity; assay: Body weight gain in high-fat-diet induced obesity mice, LH101 (Ac) vs hSPX, 18 day treatment; format: in vivo; details: for food intake: recorded every 3 days
Procedure: Female and male C57BL/6J mice weighing 22-25 g were purchased from the Laboratory Animal Services Center, The Chinese University of Hong Kong, Hong Kong. The animals were fed with rodent diet with 60 kcal % fat (Research Diets, New Brunswick, N.J.) ad libitum with free access to water and were housed in rooms maintained at 22±1° C. with a 12 h light/dark cycle (lights on 6:00-18:00). Animals were constantly acclimated to the facility until the body weight reached no less than 30 g. Then all the diet-induced obese mice were divided into 3 groups randomly for the drug treatment. Mice body weight was daily monitored, and the food intake amount was recorded every 3 days. The Animal Ethics Committee of Hong Kong Baptist University approved all experimental protocols in accordance with “Institutional Guidelines and Animal Ordinance” from Department of Health, Hong Kong Special Administrative Region.

[3] = test system: male mice (C57BL/6J) with diet-induced obesity (DIO); assay: Body weight gain in diet-induced obesity mice, LH101, 14-days-treatment; format: in vivo; details: 25 μg/kg i.p., vs PBS controls
Procedure: Male mice (C57BL/6J) weighing about 22-25 g were purchased from the Laboratory Animal Services Center, The Chinese University of Hong Kong, Hong Kong. The animals were fed with a high fat diet (Research Diets, New Brunswick, N.J.) ad libitum with free access to water and were housed in rooms maintained at 22±1° C. with a 12 h light/dark cycle (lights on 6:00-18:00). Animals were constantly acclimated to the facility until the body weight reached 45-50 g. Then all the diet induced obese mice were divided into 2 groups randomly for the drug treatment. The Animal Ethics Committees of Hong Kong Baptist University, approved all experimental protocols, in accordance with “Institutional Guidelines and Animal Ordinance” from Department of Health, Hong Kong Special Administrative Region.

hGalR1 EC50 (hGalR1) | hGalR1 Emax (hGalR1) | hGalR2 Emax (hGalR2) | hGalR3 Emax (hGalR3) | half-life at 100 μg/mL ([1]; serum, half-life time in serum) [h] | half-life at 100 μg/mL ([1]; serum, serum half-life (t1/2)) [h] | Structure (SMILES) | pEC50 (hGalR2) | pEC50 (hGalR3) | fold enhancement of half-life [1] [fold] | body weight gain ([2]; 25 μg/kg i.p., 18 day treatment, vs PBS controls) | area-under-curve (AUC) of body weight gain curve ([2]; 18 day treatment) | time after which weight gain started to wane ([2]; 18 day treatment) [days] | food intake [2] | remaining at 8 h, 100 μg/mL ([1]; serum) [%] | body weight gain [3]
N.M. | N.M. | 0.97 | 1.00 | > 24 | 32.9 | CSCC[C@@H]1NC(=O)[C@H](C)NC(=O)[C@H](CCC(N)=O)NC(=O)[C@@H]2CCCN2C(=O)[C@H]([C@@H](C)O)NC(=O)[C@H](Cc2c[nH]c3ccccc23)NC(=O)[C@@H](NC(C)=O)CSSC[C@@H](C(=O)N[C@@H](CCC(N)=O)C(N)=O)NC(=O)CNC(=O)[C@H](CCCCN)NC(=O)[C@H](CC(C)C)NC(=O)[C@H](Cc2ccc(O)cc2)NC(=O)[C@H](CC(C)C)NC1=O [LH101 (Ac)] (Ac-CWTPQAMLYLKGCQ-NH2; disulfide 1-13) | 6.42 | 6.41 | 29.1 | significantly suppressed the body weight gain | significant body weight control efficacy | 8 | inhibitory effects on food consumption | – | –
N.M. | N.M. | 1.00 | 1.00 | – | 1.11 | CSCC[C@H](NC(=O)[C@H](C)NC(=O)[C@H](CCC(N)=O)NC(=O)[C@@H]1CCCN1C(=O)[C@@H](NC(=O)[C@H](Cc1c[nH]c2ccccc12)NC(=O)[C@@H](N)CC(N)=O)[C@@H](C)O)C(=O)N[C@@H](CC(C)C)C(=O)N[C@@H](Cc1ccc(O)cc1)C(=O)N[C@@H](CC(C)C)C(=O)N[C@@H](CCCCN)C(=O)NCC(=O)N[C@@H](C)C(=O)N[C@@H](CCC(N)=O)C(N)=O [hSPX, reference compound] | – | – | – | – | significant body weight control efficacy | 10 | inhibitory effects on food consumption | – | –

Structure (SMILES) | hGalR1 EC50 (hGalR1) | hGalR1 Emax (hGalR1) | hGalR2 Emax (hGalR2) | hGalR3 Emax (hGalR3) | half-life at 100 μg/mL ([1]; serum, half-life time in serum) [h] | half-life at 100 μg/mL ([1]; serum, serum half-life (t1/2)) [h] | pEC50 (hGalR2) | pEC50 (hGalR3) | fold enhancement of half-life [1] [fold] | body weight gain ([2]; 25 μg/kg i.p., 18 day treatment, vs PBS controls) | area-under-curve (AUC) of body weight gain curve ([2]; 18 day treatment) | time after which weight gain started to wane ([2]; 18 day treatment) [days] | food intake [2] | remaining at 8 h, 100 μg/mL ([1]; serum) [%] | body weight gain [3]
CSCC[C@@H]1NC(=O)[C@H](C)NC(=O)[C@H](CCC(N)=O)NC(=O)[C@@H]2CCCN2C(=O)[C@H]([C@@H](C)O)NC(=O)[C@H](Cc2c[nH]c3ccccc23)NC(=O)[C@@H](N)CSSC[C@@H](C(=O)N[C@@H](CCC(N)=O)C(N)=O)NC(=O)CNC(=O)[C@H](CCCCN)NC(=O)[C@H](CC(C)C)NC(=O)[C@H](Cc2ccc(O)cc2)NC(=O)[C@H](CC(C)C)NC1=O [LH101] (H-CWTPQAMLYLKGCQ-NH2; disulfide 1-13) | N.M. | N.M. | 1.09 | 1.04 | – | 5.93 | 5.92 | 5.81 | 5.3 | – | – | – | – | 46 | significantly suppressed the body weight gain; also recorded: suppressed mice body weight gain; also recorded: does inhibit body weight gain

Source: US10376555B2, “Identification of cyclic peptide agonists of galanin receptor 2 and 3 guided by spexin solution structure” (Hong Kong Baptist University, priority 2017, dated 2019)
